Measured values: patent US10738028B2, “Spiro three-membered ring, spiro five-membered ring peptide deformylase inhibitor and use thereof in antibacteria and anti-tumor” (priority 2016, dated 2020)
Converted amounts (≈) assume the structure as drawn.

Tests used:
Format in all cases: cell-based
[1] = tested on: Enterococcus faecalis (EFA); experiment: MIC, two-fold agar dilution (CLSI), clinical isolates
Description: (§1) 1. The invention adopts the two-fold agar dilution method recommended by the operating procedure of antimicrobial susceptibility testing set by American Clinical and Laboratory Standards Institute (CLSI) to determine the Minimum Inhibitory Concentration (MIC) of the test samples against the tested strains.

[2] = tested on: Streptococcus pneoumoniae (SPN); experiment: as above
Description: as §1

[3] = tested on: methicillin-sensitive Staphylococcus aureus (MSSA); experiment: as above
Description: as §1

[4] = tested on: Moraxella catarrhalis (BCA); experiment: as above
Description: as §1

[5] = tested on: Escherichia coli (including ESBLs, non-ESBLs); experiment: as above
Description: as §1

[6] = tested on: methicillin-resistant Staphylococcus aureus (MRSA); experiment: as above
Description: as §1

[7] = tested on: methicillin-sensitive Staphylococcus epidermidis (MSSE); experiment: as above
Description: as §1

[8] = tested on: Enterococcus faecium (EFM); experiment: as above
Description: as §1

[9] = tested on: methicillin-resistant Staphylococcus epidermidis (MRSE); experiment: as above
Description: as §1

[10] = tested on: HCT-116 colorectal cancer cell line; experiment: CCK-8 proliferation inhibition; details: Homo sapiens, HCT-116, 72 h, concentration of 30 μM; 72 hours; CCK-8; read-out: HCT116 inhibition rate/%
Description: (1) HCT-116 colorectal cancer cell line, A549 lung cancer cell line, MGC-803 gastric cancer cell line, BEL-7402 liver cancer cell line, Jurkat T cell leukemia cell line, HL60 acute myeloid leukemia cell line, Hela cervical cancer cell line, MCF-7 breast cancer cell line, PC3 prostate cancer cell line and SAOS-2 osteosarcoma cell line were made into single cell suspension, 180 μL of which was inoculated into 96-well culture plate, which was cultured overnight in CO2 incubator (37° C., 5% CO2, 95% air).
(2) Each of the spiro three-membered ring, spiro five membered ring peptide deformylase inhibitors was dissolved in DMSO, and was further formulated into drug solution with required different final concentration using corresponding cell culture medium. The drug solutions were added to the above cells respectively (20 μL/well), with the control group added with 1‰ DMSO, and cultured in a CO2 incubator for 72 hours.
(3) After incubation for 72 hours, the culture solution was decanted, and 100 μL of 1:10 diluted CCK-8 solution was added.
Wherein, in step (1), the concentration of the single cell suspension was 2000 cells/well.
Wherein, in step (2), HCT-116 cells were cultured in McCoy's 5A medium (containing 10% newborn bovine serum, 1% double antibody); A549 and PC3 cells were cultured in F12 medium (containing 10% newborn bovine serum, 1% double antibody); MGC-803, BEL-7402, SAOS-2, Jurkat and HL60 cells were cultured in 1640 medium (containing 10% newborn bovine serum, 1% double antibody); and MCF-7 and Hela cells were cultured in DMEM high glucose medium (containing 10% newborn bovine serum, 1% double antibody).

CCCC[C@H](CN(O)C=O)C(=O)N1CC2(CC2)C[C@H]1C(=O)Nc1ccno1 [Example 17]
MIC (anti-bacterial activity) ([1]; strain EFA 15-1): 8 µg/mL (≈ 21.1 µM) | MIC (anti-bacterial activity) ([1]; strain EFA 15-2): 8 µg/mL (≈ 21.1 µM) | MIC (anti-bacterial activity) ([1]; strain EFA 15-3): 2 µg/mL (≈ 5.29 µM) | MIC (anti-bacterial activity) ([1]; strain EFA 15-4): 8 µg/mL (≈ 21.1 µM) | MIC (anti-bacterial activity) ([1]; strain EFA 15-5): 8 µg/mL (≈ 21.1 µM) | MIC (anti-bacterial activity) ([1]; strain EFA 15-6): 8 µg/mL (≈ 21.1 µM) | MIC (anti-bacterial activity) ([1]; strain EFA 15-9): 8 µg/mL (≈ 21.1 µM) | MIC (anti-bacterial activity) ([2]; strain SPN 16-2): 8 µg/mL (≈ 21.1 µM) | MIC (anti-bacterial activity) ([2]; strain SPN 16-4): 1 µg/mL (≈ 2.64 µM) | MIC (anti-bacterial activity) ([3]; strain MSSA 15-3): 1 µg/mL (≈ 2.64 µM) | MIC (anti-bacterial activity) ([3]; strain MSSA 15-4): 1 µg/mL (≈ 2.64 µM) | MIC (anti-bacterial activity) ([3]; strain MSSA 15-5): 0.25 µg/mL (≈ 0.661 µM) | MIC (anti-bacterial activity) ([3]; strain MSSA 15-6): 1 µg/mL (≈ 2.64 µM) | MIC (anti-bacterial activity) ([4]; strain BCA 14-1): 4 µg/mL (≈ 10.6 µM) | MIC (anti-bacterial activity) ([4]; strain BCA 14-4): 2 µg/mL (≈ 5.29 µM) | MIC (anti-bacterial activity) ([4]; strain BCA 14-5): 1 µg/mL (≈ 2.64 µM) | MIC (anti-bacterial activity) ([4]; strain BCA 14-6): 2 µg/mL (≈ 5.29 µM) | MIC (anti-bacterial activity) ([4]; strain BCA 14-7): 1 µg/mL (≈ 2.64 µM) | MIC (anti-bacterial activity) ([4]; strain BCA 14-8): 2 µg/mL (≈ 5.29 µM) | MIC (anti-bacterial activity) ([4]; strain BCA 14-10): 1 µg/mL (≈ 2.64 µM) | MIC (anti-bacterial activity) ([5]; strain ECO+ 15-1): 32 µg/mL (≈ 84.6 µM) | MIC (anti-bacterial activity) ([5]; strain ECO+ 15-2): 32 µg/mL (≈ 84.6 µM) | MIC (anti-bacterial activity) ([5]; strain ECO+ 15-3): > 32 µg/mL | MIC (anti-bacterial activity) ([5]; strain ECO+ 15-4): > 32 µg/mL | MIC (anti-bacterial activity) ([5]; strain ECO− 15-1): 16 µg/mL (≈ 42.3 µM) | MIC (anti-bacterial activity) ([5]; strain ECO− 15-2): 32 µg/mL (≈ 84.6 µM) | MIC (anti-bacterial activity) ([5]; strain ECO− 15-3): > 32 µg/mL | MIC (anti-bacterial activity) ([5]; strain ECO− 15-4): 32 µg/mL (≈ 84.6 µM) | MIC (anti-bacterial activity) ([6]; strain MRSA 15-1): 1 µg/mL (≈ 2.64 µM) | MIC (anti-bacterial activity) ([6]; strain MRSA 15-2): 1 µg/mL (≈ 2.64 µM) | MIC (anti-bacterial activity) ([6]; strain MRSA 15-3): 1 µg/mL (≈ 2.64 µM) | MIC (anti-bacterial activity) ([6]; strain MRSA 15-4): 1 µg/mL (≈ 2.64 µM) | MIC (anti-bacterial activity) ([7]; strain MSSE 15-3): 1 µg/mL (≈ 2.64 µM) | MIC (anti-bacterial activity) ([7]; strain MSSE 15-4): 0.5 µg/mL (≈ 1.32 µM) | MIC (anti-bacterial activity) ([7]; strain MSSE 15-5): 0.5 µg/mL (≈ 1.32 µM) | MIC (anti-bacterial activity) ([7]; strain MSSE 15-6): 0.25 µg/mL (≈ 0.661 µM) | MIC (anti-bacterial activity) ([8]; strain EFM 15-1): 1 µg/mL (≈ 2.64 µM) | MIC (anti-bacterial activity) ([8]; strain EFM 15-2): 2 µg/mL (≈ 5.29 µM) | MIC (anti-bacterial activity) ([8]; strain EFM 15-3): 0.5 µg/mL (≈ 1.32 µM) | MIC (anti-bacterial activity) ([8]; strain EFM 15-4): 2 µg/mL (≈ 5.29 µM) | MIC (anti-bacterial activity) ([8]; strain EFM 15-5): 1 µg/mL (≈ 2.64 µM) | MIC (anti-bacterial activity) ([8]; strain EFM 15-6): 2 µg/mL (≈ 5.29 µM) | MIC (anti-bacterial activity) ([9]; strain MRSE 15-1): 0.25 µg/mL (≈ 0.661 µM) | MIC (anti-bacterial activity) ([9]; strain MRSE 15-2): 0.5 µg/mL (≈ 1.32 µM) | MIC (anti-bacterial activity) ([9]; strain MRSE 15-3): 0.5 µg/mL (≈ 1.32 µM) | MIC (anti-bacterial activity) ([9]; strain MRSE 15-7): 1 µg/mL (≈ 2.64 µM) | inhibition at 30 µM [10]: 13%

CCCC[C@H](CN(O)C=O)C(=O)N1CC2(CC2)C[C@H]1C(=O)NC1CC1 [Example 18]
MIC (anti-bacterial activity) ([1]; strain EFA 15-1): 32 µg/mL (≈ 91.1 µM) | MIC (anti-bacterial activity) ([1]; strain EFA 15-2): 32 µg/mL (≈ 91.1 µM) | MIC (anti-bacterial activity) ([1]; strain EFA 15-3): 8 µg/mL (≈ 22.8 µM) | MIC (anti-bacterial activity) ([1]; strain EFA 15-4): 32 µg/mL (≈ 91.1 µM) | MIC (anti-bacterial activity) ([1]; strain EFA 15-5): 32 µg/mL (≈ 91.1 µM) | MIC (anti-bacterial activity) ([1]; strain EFA 15-6): 32 µg/mL (≈ 91.1 µM) | MIC (anti-bacterial activity) ([1]; strain EFA 15-9): 32 µg/mL (≈ 91.1 µM) | MIC (anti-bacterial activity) ([2]; strain SPN 16-2): 16 µg/mL (≈ 45.5 µM) | MIC (anti-bacterial activity) ([2]; strain SPN 16-4): 4 µg/mL (≈ 11.4 µM) | MIC (anti-bacterial activity) ([3]; strain MSSA 15-3): 2 µg/mL (≈ 5.69 µM) | MIC (anti-bacterial activity) ([3]; strain MSSA 15-4): 2 µg/mL (≈ 5.69 µM) | MIC (anti-bacterial activity) ([3]; strain MSSA 15-5): 2 µg/mL (≈ 5.69 µM) | MIC (anti-bacterial activity) ([3]; strain MSSA 15-6): 2 µg/mL (≈ 5.69 µM) | MIC (anti-bacterial activity) ([4]; strain BCA 14-1): 16 µg/mL (≈ 45.5 µM) | MIC (anti-bacterial activity) ([4]; strain BCA 14-4): 8 µg/mL (≈ 22.8 µM) | MIC (anti-bacterial activity) ([4]; strain BCA 14-5): 4 µg/mL (≈ 11.4 µM) | MIC (anti-bacterial activity) ([4]; strain BCA 14-6): 16 µg/mL (≈ 45.5 µM) | MIC (anti-bacterial activity) ([4]; strain BCA 14-7): 4 µg/mL (≈ 11.4 µM) | MIC (anti-bacterial activity) ([4]; strain BCA 14-8): 4 µg/mL (≈ 11.4 µM) | MIC (anti-bacterial activity) ([4]; strain BCA 14-10): 4 µg/mL (≈ 11.4 µM) | MIC (anti-bacterial activity) ([5]; strain ECO+ 15-1): 32 µg/mL (≈ 91.1 µM) | MIC (anti-bacterial activity) ([5]; strain ECO+ 15-2): 32 µg/mL (≈ 91.1 µM) | MIC (anti-bacterial activity) ([5]; strain ECO+ 15-3): 32 µg/mL (≈ 91.1 µM) | MIC (anti-bacterial activity) ([5]; strain ECO+ 15-4): 32 µg/mL (≈ 91.1 µM) | MIC (anti-bacterial activity) ([5]; strain ECO− 15-1): > 32 µg/mL | MIC (anti-bacterial activity) ([5]; strain ECO− 15-2): > 32 µg/mL | MIC (anti-bacterial activity) ([5]; strain ECO− 15-3): 32 µg/mL (≈ 91.1 µM) | MIC (anti-bacterial activity) ([5]; strain ECO− 15-4): 32 µg/mL (≈ 91.1 µM) | MIC (anti-bacterial activity) ([6]; strain MRSA 15-1): 2 µg/mL (≈ 5.69 µM) | MIC (anti-bacterial activity) ([6]; strain MRSA 15-2): 2 µg/mL (≈ 5.69 µM) | MIC (anti-bacterial activity) ([6]; strain MRSA 15-3): 2 µg/mL (≈ 5.69 µM) | MIC (anti-bacterial activity) ([6]; strain MRSA 15-4): 2 µg/mL (≈ 5.69 µM) | MIC (anti-bacterial activity) ([7]; strain MSSE 15-3): 2 µg/mL (≈ 5.69 µM) | MIC (anti-bacterial activity) ([7]; strain MSSE 15-4): 2 µg/mL (≈ 5.69 µM) | MIC (anti-bacterial activity) ([7]; strain MSSE 15-5): 2 µg/mL (≈ 5.69 µM) | MIC (anti-bacterial activity) ([7]; strain MSSE 15-6): 2 µg/mL (≈ 5.69 µM) | MIC (anti-bacterial activity) ([8]; strain EFM 15-1): 8 µg/mL (≈ 22.8 µM) | MIC (anti-bacterial activity) ([8]; strain EFM 15-2): 8 µg/mL (≈ 22.8 µM) | MIC (anti-bacterial activity) ([8]; strain EFM 15-3): 2 µg/mL (≈ 5.69 µM) | MIC (anti-bacterial activity) ([8]; strain EFM 15-4): 8 µg/mL (≈ 22.8 µM) | MIC (anti-bacterial activity) ([8]; strain EFM 15-5): 4 µg/mL (≈ 11.4 µM) | MIC (anti-bacterial activity) ([8]; strain EFM 15-6): 8 µg/mL (≈ 22.8 µM) | MIC (anti-bacterial activity) ([9]; strain MRSE 15-1): 2 µg/mL (≈ 5.69 µM) | MIC (anti-bacterial activity) ([9]; strain MRSE 15-2): 2 µg/mL (≈ 5.69 µM) | MIC (anti-bacterial activity) ([9]; strain MRSE 15-3): 2 µg/mL (≈ 5.69 µM) | MIC (anti-bacterial activity) ([9]; strain MRSE 15-7): 2 µg/mL (≈ 5.69 µM) | inhibition at 30 µM [10]: 5%
